In patent US12059418B2, “Plasmodial surface anion channel inhibitors for the treatment or prevention of malaria” (The United States of America, as represented by the …, priority 2011, dated 2024):
“Also recorded” adds a separate entry of the source.

Legend:
human HeLa cells = test: Mammalian cytotoxicity, MTS viability; format: cell-based
Procedure: (§1) Cytotoxicity of PSAC inhibitors was measured with human HeLa cells (ATCC # CLL-2) in 96-well plates at 4000 cells/well. Cultures were incubated with each inhibitor at 37° C. for 72 h in Minimal Essential Medium (Gibco/Invitrogen, Carlsbad, Calif.) supplemented with 10% fetal calf serum. Cell viability was quantified using the vital stain MTS [3-(4,5-dimethylthiazol-2-yl)-5-(3-carboxymethonyphenol)-2-(4-sulfophenyl)-2H-tetrazolium, inner salt], as described (Marshall et al., Growth Regul., 5: 69-84 (1995)). The reported CC50 value is the concentration of an inhibitor that reduces conversion of MTS to formazan by 50%.

[1] = Mammalian cytotoxicity, MTS viability; format: cell-based, human; conditions: human, HeLa cells; 72 h, MTS; read-out: HeLa cell CC50
Procedure: as §1

P. falciparum [2] = test: microbe, parasite or virus in culture; format: cell-based; conditions: for IC50: Plasmodium falciparum, 72 h; for IC50 ratio: RPMI growth IC50 / PLM growth IC50
PSAC [3] = test: Transport inhibition assay, osmotic lysis of infected cells in sorbitol (Table 5); format: cell-based, P. falciparum
PSAC [4] = test: K0.5 for PSAC block, light-scattering osmotic lysis assay in sorbitol (Example 1); format: cell-based, P. falciparum; conditions: for K0.5 for PSAC block: concentration producing 50% block of PSAC-mediated solute uptake; for IC50: read-out: K0.5 for PSAC block, concentration producing 50% block of PSAC-mediated solute uptake
Description: The chemical inhibitors included:
In this assay, increases in transmittance (% T, measured at 700 nm) correlated directly to lysis of infected RBCs and were plotted in arbitrary units. Uninfected RBCs lacked PSAC activity and had undetectably low sorbitol permeability.

P. falciparum [5] = test: In vitro parasite killing, SYBR Green I fluorescence assay in RPMI 1640 or PLM (Example 1); format: cell-based; conditions: for IC50: Plasmodium falciparum, 72 h; for Ratio (RPMI/PLM): ratio of IC50 RPMI/PLM
Procedure: In vitro parasite killing by PSAC inhibitors was quantified using a SYBR Green I-based fluorescence assay for parasite nucleic acid in 96-well format.
Cultures were maintained for 3 days at 37° C. in 5% 02, 5% CO2 without media change. After this incubation, Sybr Green I was added in 20 mM Tris, 10 mM EDTA, 0.016% saponin, 1.6% triton X100.

[6] = 37° C., read-out: Transport inhibition K0.5
[7] = PSAC-limiting medium (PLM), 3 days, read-out: PLM IC50
[8] = RPMI 1640 standard media, 3 days, read-out: RPMI IC50

| SMILES | specificity (HeLa CC50/parasite PLM IC50) (human HeLa cells) | CC50 at 72 h [1] | IC50 (P. falciparum [2]; read-out: PLM growth IC50) | IC50 (P. falciparum [2]; read-out: RPMI growth IC50) | IC50 ratio (P. falciparum [2]) | IC50 (PSAC [3]; [6]) | further results |
| --- | --- | --- | --- | --- | --- | --- | --- |
| COc1ccc(NC(=O)c2cc3cc4ccc(C)cc4nc3o2)cc1 [(280)] | >430 | > 100000 nM | 230 nM | 18000 nM | 270 | – | IC50 (PSAC [3]; read-out: Transport inhibition K0.5, 37° C.): 6 nM |
| CCCCN(CC)C(=O)c1cc2cc3ccc(C)cc3nc2o1 [(24)] | 110 | 30000 nM | 270 nM | 23000 nM | 114 | 87 nM | – |
| NS(=O)(=O)c1cc(C(=O)O)c(NCc2ccco2)cc1Cl [furosemide, reference compound] | – | – | 21000 nM | > 200000 nM | – | – | – |
| CCN(CC)CCCC(C)Nc1ccnc2cc(Cl)ccc12 (centres unmarked) [chloroquine, reference compound] | – | – | 340 nM | 220 nM | – | – | K0.5 for PSAC block (PSAC [4]): did not inhibit PSAC activity; IC50 (P. falciparum [5]; read-out: PLM IC50): 340 nM; IC50 (P. falciparum [5]; read-out: RPMI IC50): 220 nM; Transport inhibition K0.5 (PSAC [3]; 37° C.): do not inhibit PSAC-mediated solute uptake; also recorded: inactive |
| O=C1Nc2cc(C(=O)N3CCN(c4ccccc4)CC3)ccc2Sc2ccccc21 [(3) (TP-52)] | >530 | > 100000 nM | 190 nM | 7300 nM | 38 | 25 nM | – |
| C[C@@H]1CC[C@H]2[C@@H](C)C(=O)O[C@@H]3O[C@@]4(C)CC[C@@H]1[C@]32OO4 [artemisinin] | – | – | – | – | 0.66 | – | K0.5 for PSAC block (PSAC [4]): did not inhibit PSAC activity; K0.5 for PSAC block (PSAC [4]; listed as Artemisinin): inactive; IC50 (P. falciparum [5]; [7]): 26 nM; IC50 (P. falciparum [5]; [8]): 18 nM; Ratio (RPMI/PLM) (P. falciparum [5]): 0.66; Transport inhibition K0.5 (PSAC [3]; 37° C.): do not inhibit PSAC-mediated solute uptake; also recorded: inactive |
| Cc1ccc(C)c(N2CCN(S(=O)(=O)c3ccc(-c4ccc(=O)[nH]n4)s3)CC2)c1 [Compound of formula (1a)] | – | – | – | – | – | – | IC50 (PSAC [4]): 3 nM; IC50 (P. falciparum [5]; [7]): 2.3 nM; IC50 (P. falciparum [5]; [8]): 1500 nM; Ratio (RPMI/PLM) (P. falciparum [5]): 800 |
| CCN(Cc1ccccc1)C(=O)c1ccc2c(c1)NC(=O)c1ccccc1S2 [(31)] | >240 | > 100000 nM | 410 nM | 4700 nM | 15 | 84 nM | – |
| OC(c1cc(C(F)(F)F)nc2c(C(F)(F)F)cccc12)C1CCCCN1 (centres unmarked) [mefloquine] | – | – | – | – | 0.66 | – | K0.5 for PSAC block (PSAC [4]): did not inhibit PSAC activity; K0.5 for PSAC block (PSAC [4]; listed as Mefloquine): inactive; IC50 (P. falciparum [5]; [7]): 33 nM; IC50 (P. falciparum [5]; [8]): 22 nM; Ratio (RPMI/PLM) (P. falciparum [5]): 0.66; Transport inhibition K0.5 (PSAC [3]; 37° C.): do not inhibit PSAC-mediated solute uptake; also recorded: inactive |
| COc1ccc2cc3cc(C(=O)N(C)C4CCCCC4)oc3nc2c1 [(25)] | – | – | 170 nM | 15000 nM | 86 | 33 nM | – |
| Cc1ccc(C)c(N2CCN(S(=O)(=O)c3ccc(-c4ccc(=O)[nH]n4)s3)CC2)c1 [ISG-21] | 43,000 | 86000 nM | 2 nM | – | 800 | 2.6 nM | – |
| O=C1CN(/N=C/c2ccc(-c3ccc([N+](=O)[O-])cc3)o2)C(=O)N1 [dantrolene, reference compound] | – | – | 3800 nM | 42000 nM | 18 | 1200 nM | – |
| CCc1nn2c(=O)cc(CSc3nc4ccc(NC(=O)c5cccs5)cc4s3)nc2s1 [Compound of formula (2a)] | – | – | – | – | – | – | IC50 (PSAC [4]): 10 nM; IC50 (P. falciparum [5]; [7]): 300 nM; IC50 (P. falciparum [5]; [8]): > 30000 nM; Ratio (RPMI/PLM) (P. falciparum [5]): >100 |
| O=C1N=C(N2CCCC2)S/C1=C/c1cccc(Cl)c1 [Cpd 80] | – | – | 170 nM | 12500 nM | 130 | 44 nM | – |
| CC1=Nc2ccc(C)cc2C1/C=C1/C(=N)N2N=C(S(=O)(=O)CC(C)C)SC2=NC1=O (centres unmarked) [Cpd 50] | >50 | > 100000 nM | 2000 nM | > 30000 nM | >15 | 81 nM | – |
